{"source": "patent US20140371262A1", "about": "“PREVENTIVE AND/OR THERAPEUTIC AGENT FOR THROMBOEMBOLISM IN THROMBOEMBOLISM PATIENT WITH SEVERE RENAL IMPAIRMENT” (Daiichi Sankyo Company, Limited, priority 2011, published 2014)", "key": {"[1]": {"tested_on": "patients with moderate to-high-risk atrial fibrillation", "test": "ENGAGE-AF TIMI-48 phase 3 study of edoxaban versus warfarin in atrial fibrillation"}, "[2]": {"tested_on": "NVAF patient with severe renal impairment or with normal renal functions or mild renal impairment", "test": "Phase-III trial targeting NVAF patient with severe renal impairment", "conditions": "for Any bleeding events (adjudicated), incidence / Any bleeding events (adjudicated), number of subjects with events / Clinically relevant non-major bleeding events, incidence / Clinically relevant non-major bleeding events, number of subjects with events / Major bleeding events, incidence / Major bleeding events, number of subjects with events: 12 weeks"}, "NVAF patients": {"tested_on": "NVAF patients", "test": "Late phase-II trial targeting NVAF patient in Japan (thromboembolic and bleeding events, 12 weeks)", "type": "in vivo, human", "conditions": "12 weeks"}, "[3]": {"conditions": "high-dose edoxaban (60 mg once daily, halved per criteria)"}, "[4]": {"conditions": "low-dose edoxaban (30 mg once daily, halved per criteria)"}, "[5]": {"conditions": "subgroup whose CLCR had become <30 mL/min during the trial, edoxaban 15 mg (N = 349), warfarin dose adjusted (N = 367)"}, "[6]": {"conditions": "Normal/MiRI (CLCR 50 mL/min or higher), high-dose 60 mg once a day"}, "[7]": {"conditions": "Normal/MiRI (CLCR 50 mL/min or higher), low-dose 30 mg once a day"}, "[8]": {"conditions": "SRI (CLCR 15 to <30 mL/min), edoxaban 15 mg once a day"}, "[9]": {"conditions": "any of the treatment groups (SRI 15 mg, Normal/MiRI 30 mg, 60 mg)"}, "[10]": {"conditions": "30 mg×1/day, 30 ≦ CLCR < 50 mL/min"}, "[11]": {"conditions": "30 mg×1/day, 50 ≦ CLCR ≦ 80 mL/min"}, "[12]": {"conditions": "45 mg×1/day, 30 ≦ CLCR < 50 mL/min"}}}
{"smiles": "CN1CCc2nc(C(=O)N[C@@H]3C[C@@H](C(=O)N(C)C)CC[C@@H]3NC(=O)C(=O)Nc3ccc(Cl)cn3)sc2C1", "note": "[edoxaban, N^1-(5-chloropyridin-2-yl)-N^2-((1S,2R,4S)-4-[(dimethylamino)carbonyl]-2-{[(5-methyl-4,5,6,7-tetrahydrothiazolo[5,4-c]pyridin-2-yl)carbonyl]amino}cyclohexyl)ethanediamide]", "values": [{"measurement": "Efficacy, safety and composite primary endpoint comprising ACM compared with warfarin", "setting": "[1]; 15 mg dose regimen of edoxaban, subgroup CLCR <30 mL/min", "value": "noninferior to warfarin"}, {"measurement": "Prevention of stroke or systemic embolism compared with warfarin", "setting": "[1]; both once-daily regimens of edoxaban", "value": "noninferior to warfarin"}, {"measurement": "Hazard ratio vs warfarin, death from cardiovascular causes", "setting": "[1]; high-dose edoxaban", "value": 0.86}, {"measurement": "Hazard ratio vs warfarin, key secondary end point", "setting": "[1]; high-dose edoxaban", "value": 0.87}, {"measurement": "Hazard ratio vs warfarin, major bleeding", "setting": "[1]; high-dose edoxaban", "value": 0.80}, {"measurement": "Hazard ratio vs warfarin, primary end point during treatment", "setting": "[1]; high-dose edoxaban", "value": 0.79}, {"measurement": "Hazard ratio vs warfarin, primary end point, intention-to-treat analysis", "setting": "[1]; high-dose edoxaban", "value": 0.87}, {"measurement": "Annualized rate of death from cardiovascular causes", "setting": "[1]; [3]", "value": 2.74, "unit": "%"}, {"measurement": "Annualized rate of major bleeding", "setting": "[1]; [3]", "value": 2.75, "unit": "%"}, {"measurement": "Annualized rate of the primary end point (stroke or systemic embolism) during treatment", "setting": "[1]; [3]", "value": 1.18, "unit": "%"}, {"measurement": "Rate of the key secondary end point (composite of stroke, systemic embolism, or death from cardiovascular causes)", "setting": "[1]; [3]", "value": 3.85, "unit": "%"}, {"measurement": "Hazard ratio vs warfarin, death from cardiovascular causes", "setting": "[1]; low-dose edoxaban", "value": 0.85}, {"measurement": "Hazard ratio vs warfarin, key secondary end point", "setting": "[1]; low-dose edoxaban", "value": 0.95}, {"measurement": "Hazard ratio vs warfarin, major bleeding", "setting": "[1]; low-dose edoxaban", "value": 0.47}, {"measurement": "Hazard ratio vs warfarin, primary end point during treatment", "setting": "[1]; low-dose edoxaban", "value": 1.07}, {"measurement": "Hazard ratio vs warfarin, primary end point, intention-to-treat analysis", "setting": "[1]; low-dose edoxaban", "value": 1.13}, {"measurement": "Annualized rate of death from cardiovascular causes", "setting": "[1]; [4]", "value": 2.71, "unit": "%"}, {"measurement": "Annualized rate of major bleeding", "setting": "[1]; [4]", "value": 1.61, "unit": "%"}, {"measurement": "Annualized rate of the primary end point (stroke or systemic embolism) during treatment", "setting": "[1]; [4]", "value": 1.61, "unit": "%"}, {"measurement": "Rate of the key secondary end point (composite of stroke, systemic embolism, or death from cardiovascular causes)", "setting": "[1]; [4]", "value": 4.23, "unit": "%"}, {"measurement": "ACM (all cause mortality): # of events", "setting": "[1]; [5]", "value": 12}, {"measurement": "ACM (all cause mortality): Event Rate", "setting": "[1]; [5]", "value": 1.95, "unit": "%/yr"}, {"measurement": "Disabling Stroke: # of events", "setting": "[1]; [5]", "value": 3}, {"measurement": "Disabling Stroke: Event Rate", "setting": "[1]; [5]", "value": 0.49, "unit": "%/yr"}, {"measurement": "Fatal Bleed: # of events", "setting": "[1]; [5]", "value": 2}, {"measurement": "Fatal Bleed: Event Rate", "setting": "[1]; [5]", "value": 0.33, "unit": "%/yr"}, {"measurement": "Fatal SEE: # of events", "setting": "[1]; [5]", "value": 0}, {"measurement": "Fatal SEE: Event Rate", "setting": "[1]; [5]", "value": 0.00, "unit": "%/yr"}, {"measurement": "Fatal Stroke: # of events", "setting": "[1]; [5]", "value": 2}, {"measurement": "Fatal Stroke: Event Rate", "setting": "[1]; [5]", "value": 0.33, "unit": "%/yr"}, {"measurement": "First Disabling or Fatal Stroke, Fatal SEE, LT or Fatal Bleed, or ACM: # of events", "setting": "[1]; [5]", "value": 19}, {"measurement": "First Disabling or Fatal Stroke, Fatal SEE, LT or Fatal Bleed, or ACM: Event Rate", "setting": "[1]; [5]", "value": 3.10, "unit": "%/yr"}, {"measurement": "First Stroke, SEE or TIA: # of events", "setting": "[1]; [5]", "value": 15}, {"measurement": "First Stroke, SEE or TIA: Event Rate", "setting": "[1]; [5]", "value": 2.48, "unit": "%/yr"}, {"measurement": "First Stroke, SEE, Major Bleed, or ACM: # of events", "setting": "[1]; [5]", "value": 39}, {"measurement": "First Stroke, SEE, Major Bleed, or ACM: Event Rate", "setting": "[1]; [5]", "value": 6.46, "unit": "%/yr"}, {"measurement": "LT Bleed (life threatening): # of events", "setting": "[1]; [5]", "value": 2}, {"measurement": "LT Bleed (life threatening): Event Rate", "setting": "[1]; [5]", "value": 0.33, "unit": "%/yr"}, {"measurement": "Bleeding compared to the low dose or high dose in patients with Normal/miRI", "setting": "[2]; 15 mg of edoxaban for 12 weeks in patients with SRI", "value": "did not result in a marked increase in bleeding"}, {"measurement": "Any bleeding events (adjudicated), incidence", "setting": "[2]; [6]", "value": 23.8, "unit": "%"}, {"measurement": "Any bleeding events (adjudicated), number of subjects with events", "setting": "[2]; [6]", "value": 5}, {"measurement": "Clinically relevant non-major bleeding events, incidence", "setting": "[2]; [6]", "value": 4.8, "unit": "%"}, {"measurement": "Clinically relevant non-major bleeding events, number of subjects with events", "setting": "[2]; [6]", "value": 1}, {"measurement": "Major bleeding events, incidence", "setting": "[2]; [6]", "value": 0.0, "unit": "%"}, {"measurement": "Major bleeding events, number of subjects with events", "setting": "[2]; [6]", "value": 0}, {"measurement": "Any bleeding events (adjudicated), incidence", "setting": "[2]; [7]", "value": 22.7, "unit": "%"}, {"measurement": "Any bleeding events (adjudicated), number of subjects with events", "setting": "[2]; [7]", "value": 5}, {"measurement": "Clinically relevant non-major bleeding events, incidence", "setting": "[2]; [7]", "value": 0, "unit": "%"}, {"measurement": "Clinically relevant non-major bleeding events, number of subjects with events", "setting": "[2]; [7]", "value": 0}, {"measurement": "Major bleeding events, incidence", "setting": "[2]; [7]", "value": 0.0, "unit": "%"}, {"measurement": "Major bleeding events, number of subjects with events", "setting": "[2]; [7]", "value": 0}, {"measurement": "Difference in the incidence of any adjudicated bleeding events", "setting": "[2]; SRI 15-mg edoxaban group vs Normal/MiRI low-dose (30-mg) or high-dose (60-mg) group", "value": "No notable difference"}, {"measurement": "Any bleeding events (adjudicated), incidence", "setting": "[2]; [8]", "value": 20.0, "unit": "%"}, {"measurement": "Any bleeding events (adjudicated), number of subjects with events", "setting": "[2]; [8]", "value": 10}, {"measurement": "Clinically relevant non-major bleeding events, incidence", "setting": "[2]; [8]", "value": 0, "unit": "%"}, {"measurement": "Clinically relevant non-major bleeding events, number of subjects with events", "setting": "[2]; [8]", "value": 0}, {"measurement": "Major bleeding events, incidence", "setting": "[2]; [8]", "value": 0.0, "unit": "%"}, {"measurement": "Major bleeding events, number of subjects with events", "setting": "[2]; [8]", "value": 0}, {"measurement": "Relation of the serious adverse events to the study drug", "setting": "[2]; all serious adverse events were reported in the SRI 15-mg group", "value": "considered unrelated to the study drug"}, {"measurement": "Deaths", "setting": "[2]; any of the treatment groups", "value": "No deaths were reported"}, {"measurement": "Adjudicated major bleeding events", "setting": "[2]; [9]", "value": "No adjudicated major bleeding events occurred"}, {"measurement": "Thromboembolic events (cerebral infarction and systemic embolism)", "setting": "[2]; [9]", "value": "No cerebral infarction or systemic embolism occurred"}, {"measurement": "Bleeding event (major, clinically relevant non-major and minor in total), subjects with event/subjects", "setting": "NVAF patients; [10]", "value": "(3/15)"}, {"measurement": "Incidence of bleeding event (major, clinically relevant non-major and minor bleeding in total)", "setting": "NVAF patients; [10]", "value": 20.0, "unit": "%"}, {"measurement": "Incidence of major bleeding or clinically relevant non-major bleeding", "setting": "NVAF patients; [10]", "value": 6.7, "unit": "%"}, {"measurement": "Major bleeding or clinically relevant non-major bleeding, subjects with event/subjects", "setting": "NVAF patients; [10]", "value": "(1/15)"}, {"measurement": "Bleeding event (major, clinically relevant non-major and minor in total), subjects with event/subjects", "setting": "NVAF patients; [11]", "value": "(14/69)"}, {"measurement": "Incidence of bleeding event (major, clinically relevant non-major and minor bleeding in total)", "setting": "NVAF patients; [11]", "value": 20.3, "unit": "%"}, {"measurement": "Incidence of major bleeding or clinically relevant non-major bleeding", "setting": "NVAF patients; [11]", "value": 1.4, "unit": "%"}, {"measurement": "Major bleeding or clinically relevant non-major bleeding, subjects with event/subjects", "setting": "NVAF patients; [11]", "value": "(1/69)"}, {"measurement": "Bleeding event (major, clinically relevant non-major and minor in total), subjects with event/subjects", "setting": "NVAF patients; 30 mg×1/day, 80 < CLCR mL/min", "value": "(7/46)"}, {"measurement": "Incidence of bleeding event (major, clinically relevant non-major and minor bleeding in total)", "setting": "NVAF patients; 30 mg×1/day, 80 < CLCR mL/min", "value": 15.2, "unit": "%"}, {"measurement": "Incidence of major bleeding or clinically relevant non-major bleeding", "setting": "NVAF patients; 30 mg×1/day, 80 < CLCR mL/min", "value": 0, "unit": "%"}, {"measurement": "Major bleeding or clinically relevant non-major bleeding, subjects with event/subjects", "setting": "NVAF patients; 30 mg×1/day, 80 < CLCR mL/min", "value": "(0/46)"}, {"measurement": "Bleeding event (major, clinically relevant non-major and minor in total), subjects with event/subjects", "setting": "NVAF patients; [12]", "value": "(6/21)"}, {"measurement": "Incidence of bleeding event (major, clinically relevant non-major and minor bleeding in total)", "setting": "NVAF patients; [12]", "value": 28.6, "unit": "%"}, {"measurement": "Incidence of major bleeding or clinically relevant non-major bleeding", "setting": "NVAF patients; [12]", "value": 9.5, "unit": "%"}]}
